Tests used:
[1] = system: tyrosine residues in the cytoplasmic domain of NGFR; test: Tyrosine phosphorylation of ectodomain/NGFR chimeras expressed in COS1 cells (homophilic complex formation); assay type: cell-based; settings: FIG. 9
Experimental: Cell lysate samples were subjected to separation on SDS-PAGE, followed by a transfer of the proteins in the gel to nitrocellulose membranes (Hybond-ECL, Amersham Pharmacia Biotech, Inc.). After blocking with a solution of 10% skim milk dissolved in TBS (20 mM Tris-HCl buffer, pH 7.5 containing 150 mM NaCl), the membrane was exposed to a monoclonal anti-FLAG M2 antibody (3 μg/ml) for detecting FLAG-tagged MT1-MMP and its mutants. In order to visualize the immunoreactive bands, the membrane was further exposed to an alkaline phosphatase-conjugated goat anti-mouse IgG antibody. For the purpose of detecting a phosphotyrosine residue in chimera proteins, a monoclonal anti-phosphotyrosine antibody, PY20 (1 μg/ml) was used.
By utilizing the above principle, a chimeric protein is first constructed consisting of the ectodomain of MT1-MMP and the transmembrane (TM) and cytoplasmic (CP) domains of NGFR (FIG. 8) in order to test for direct complex formation. When the ectodomain of this chimeric protein forms a homophilic complex in a similar manner, tyrosine residues in the cytoplasmic domain will be phosphorylated.
A FLAG-tagged MT1-MMP (MT1-F) expression construct as used herein was as described in Itoh, Y. et al., J. Biol. Chem. 274: 34260-34266, 1999. In addition, MT1-F was used as a template to generate cDNAs for MT1Cat-F (Δ Ile^318-Gly^535) and MT1PEX-F (ΔTyr^112-Pro^312) by the PCR extension method of Ho et al. (Ho, S. N. et al., Gene, 77: 51-59, 1989). The cDNA was subcloned into pSG5 (Stratagene, CA, USA). Chimera mutants of the ectodomain of MT1-F, MT1Cat-F, MT1PEX-F or MT4PEX-F, with the transmembrane (TM)/cytoplasmic (CP) domain of NGFR were also generated by the PCR method in a similar manner, and subcloned into pSG5. The MT1-MMP-derived sequence corresponded to Met^1 through Asp^515 of MT1-MMP, while the NGFR-derived sequence corresponded to Glu^384 through Gly^790 of NGFR (GenBank™ accession number M23102). The other chimera mutants were also composed from these corresponding sequences. All the PCR-generated fragments were confirmed by DNA sequencing.
Expression vectors for the protein were transfected into COS1 cells, using FuGENE6™ (Roche Molecular Biochemicals) according to the manufacturer's instructions. COS1 cells were seeded in 6-well plates at 1.5×10^5/well at 16 hrs before the transfection was performed. The COS1 cells were maintained in a HAM F-12 medium or DMEM containing 10% fetal bovine serum in a humidified incubator at 37° C. At 48 hrs after the transfection, the cells were collected for use in the experiments.
To monitor the dimer formation of the enzyme in the cells, another approach to detect the molecular interactions was executed. […]

proMMP-2 = target: T1, proMMP-2 (Homo sapiens, UniProt P08253); test: ProMMP-2 binding assay on transfected COS1 cells; assay type: cell-based; settings: COS1 cells expressing the mutant (FIG. 21)
T1 construct: made in house; host or cells: HighFive insect cells infected with recombinant baculovirus; purified from culture supernatant
T1 sequence (P08253 30-660 limits assumed): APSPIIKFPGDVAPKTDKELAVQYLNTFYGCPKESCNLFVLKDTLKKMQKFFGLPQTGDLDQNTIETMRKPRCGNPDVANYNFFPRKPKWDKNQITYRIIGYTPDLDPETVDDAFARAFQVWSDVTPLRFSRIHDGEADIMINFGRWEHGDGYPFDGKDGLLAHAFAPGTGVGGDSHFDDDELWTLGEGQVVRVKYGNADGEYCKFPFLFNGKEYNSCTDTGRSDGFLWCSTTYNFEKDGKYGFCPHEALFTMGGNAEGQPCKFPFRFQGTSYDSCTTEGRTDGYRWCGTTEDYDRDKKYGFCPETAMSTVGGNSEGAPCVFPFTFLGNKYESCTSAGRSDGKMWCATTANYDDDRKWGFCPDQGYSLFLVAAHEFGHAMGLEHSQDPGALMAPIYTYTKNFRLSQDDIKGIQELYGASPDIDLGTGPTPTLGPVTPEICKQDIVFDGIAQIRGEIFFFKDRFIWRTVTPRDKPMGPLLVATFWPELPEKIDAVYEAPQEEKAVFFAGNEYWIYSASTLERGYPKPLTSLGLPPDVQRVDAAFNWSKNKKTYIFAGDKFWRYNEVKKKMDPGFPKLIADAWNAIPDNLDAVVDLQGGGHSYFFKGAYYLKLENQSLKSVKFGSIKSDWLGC
Experimental: Transfected COS1 cells were cultured in a 24-well plate (0.2×10^4/well). Forty-eight hours after transfection, the cells were washed three times with serum-free DMEM, and incubated with purified proMMP-2 (2 μg/ml) in the serum-free DMEM at 25° C. for 1 hr. The cells were then washed three times with serum-free DMEM containing 5% dimethyl sulfoxide (DMSO) to remove free proMMP-2, and lysed in 50 μl of a non-reducing SDS-loading buffer. MMP-2 bound to the cells was analyzed by gelatin zymography.

MT1-MMP [2] = test: Activation of proMMP-2 by MT1-MMP on the cell surface of transfected cells (gelatin zymography); assay type: cell-based, human; settings: transfected COS1 cells, exogenous purified proMMP-2 (FIGS. 2, 20)
Experimental: Gelatin zymography was conducted using an SDS-polyacrylamide gel (PAGE) containing gelatin (0.8 mg/ml) (Itoh, Y. et al., J. Biol. Chem., 273: 24360-24367, 1998). The samples were mixed with a SDS-PAGE loading buffer without a reducing agent and subjected to electrophoretic analysis at room temperature. Enzyme activity was visualized as a negative staining area with Coomassie Brilliant Blue R-250.
The expression construct for FLAG epitope ([…]-tagged MT1-MMP (MT1-F) described in Itoh, Y. et al., J. Biol. Chem., 274: 34260-34266, 1999 was used as a template to generate cDNA for MT1Cat-F (A Ile^318-Gly^535) by the PCR extension method of Ho et al., (Ho, S. N. et al., Gene, 77: 51-59, 1989). The cDNA was subcloned into pSG5 (Stratagene, CA, USA). The PCR-generated fragments were confirmed by DNA sequencing. COS1 cells were transfected with the expression vector for MT1-MMP mutant; MT1-F or MT1Cat-F, or a vector alone (Mock). Expression vectors for each protein were transfected using FuGENE6™ (Roche Molecular Biochemicals) according to the manufacturer's instructions. COS1 cells were seeded in 6-well plates at 1.5×10^5/well at 16 hrs before the transfection was performed. The COS1 cells were maintained in a HAM F-12 medium or DMEM containing 10% fetal bovine serum in a humidified incubator at 37° C. At 48 hrs after the transfection, the cells were collected for use in the experiments. The cells were incubated in the presence of purified proMMP-2 in a serum-free medium (0.25 μg/ml) at 37° C. for 18 hrs. Cell lysates were tested for the expression of the mutants, while culture supernatants were tested for the activation of proMMP-2.
To investigate roles of dimer formation upon the activation of proMMP-2, MT1-F was introduced into COS1 cells together with MT1PEX-F. The co-introduced cells were reacted with exogenously added proMMP-2. Thus, COS1 cells were co-transfected with the MT1-F and MT1PEX-F at indicated DNA amount ratios. Next, purified proMMP-2 (0.25 μg/ml) in a serum-free medium was reacted with the resulting cells at 37° C. for 18 hrs. MMP-2 in the culture supernatant was analyzed by gelatin zymography, and the cell lysates were subjected to Western blotting analysis using a monoclonal anti-FLAG M2 antibody.
(§1) Next, to determine if MT1PEX-F affects the catalytic activity of MT1-MMP on the cell surface or not, tests for gelatin degrading activity and binding capacity to TIMP-2 were conducted using cells transfected in the same incubator. As shown in FIGS. 12 through 14, CHO-K1 cells were transfected with an expression vector for MT1-F, MT1-F/MT1PEX-F or MT1Cat-F, or a vector alone (Mock). The cells were then treated with trypsin, and separately seeded to: DQ™ gelatin-coated cover slips for testing the proteolytic activity (FIG. 13); and 24-well plates for TIMP-2 binding assay (FIG. 12) and for the activation of proMMP-2 (FIG. 14). Transfected cells on the DQ™ gelatin-coated cover slip as shown in FIG. 13 were incubated in a medium at 37° C. for 18 hrs, and the generated fluorescence was analyzed using confocal microscopy. Transfected cells on the 24-well plate as shown in FIG. 12 were incubated with 25 nM ^125I-labeled TIMP-2 in the presence or absence of BB-94 (50 μM) at 0° C. for 1 hr. MT1-MMP specific binding was calculated by subtracting the datum obtained in the presence of BB-94 (50 μM) from each datum derived from the corresponding experiments. […] DQ™ gelatin is a fluorescence-quenched gelatin, which fluoresces upon proteolytic cleavage. […]

MT1-MMP [3] = test: In situ gelatin degrading assay (DQ gelatin or Alexa488-conjugated gelatin); assay type: cell-based, human; settings: DQ gelatin; CHO-K1 (FIG. 13) or COS1 cells (FIG. 22)
Experimental: Two different in situ gelatin degrading assays were performed. One used DQ™ gelatin (Molecular Probes, Inc., OR, USA). DQ gelatin is a fluorescence-quenched gelatin substrate, and will fluoresce upon proteolytic cleavage. Glass cover slips were coated with 5% DQ™ gelatin in a 10 mg/ml unlabeled gelatin solution, and dried. Transfected cells were cultured on the cover slip in a humidified chamber for 16 hrs. The cells were then fixed with 3% para-formaldehyde and the degraded areas were visualized as those showing fluorescence.
The other assay used Alexa488-conjugated gelatin made with an Alexa488-labeling kit (Molecular Probes). The bottom surfaces of 4-well chamber slides (Nunc) were coated with Alexa488-conjugated gelatin according to the method of Yana, I. and Weiss, S. J., Mol. Biol. Cell, 11, 2387-2401, 2000. Transfected COS1 cells were cultured in the chamber slides for 16 hrs in a humidified culture incubator. The cells were then fixed with 3% para-formaldehyde in PBS, and the degraded area was analyzed under a fluorescence microscope. The degraded area was visualized as a dark, non-fluorescent area. Fluorescence images were analyzed using confocal microscopy (BioRad).
as §1, with “experiments. Identically transfected cells on the 24-well plate as shown in FIG. 14 were subjected to the reaction with purified proMMP-2 in a serum-free medium at 37° C. for 18 hrs. The cells and culture supernatants were respectively subjected to Western blotting analysis using a monoclonal anti-FLAG M2 antibody, and gelatin zymography analysis.” for “experiments.”

| Substance | tyrosine phosphorylation of the chimera (Anti-PY) [1] | ternary complex formation with TIMP-2/proMMP-2 on the cell surface (proMMP-2) | activation of proMMP-2 by cells expressing the mutant (MT1-MMP [2]) | gelatin degrading (proteolytic) activity of cells expressing the mutant (MT1-MMP [3]) |
| --- | --- | --- | --- | --- |
| MT1-F/NGFR: Chimera of the ectodomain of MT1-F with the transmembrane/cytoplasmic domain of NGFR | phosphorylated | – | – | – |
| MT1-MT4PEX: MT1-MMP in which Cys319 to Cys508 is replaced with Cys336 to Cys527 of mouse MT4-MMP | – | can form a ternary complex | did not activate proMMP-2 | showed proteolytic activity |
| MT1Cat-F/NGFR: Chimera of the ectodomain of MT1Cat-F with the transmembrane/cytoplasmic domain of NGFR | extremely low | – | – | – |
| MT1PEX-F/NGFR: Chimera of the ectodomain of MT1PEX-F with the transmembrane/cytoplasmic domain of NGFR | strongly phosphorylated | – | – | – |
| MT4PEX-F/NGFR: Chimera of the ectodomain of MT4PEX-F with the transmembrane/cytoplasmic domain of NGFR | extremely low | – | – | – |

— patent US20040120954A1, “Regulation of mt1-mmp activity” (priority 2000, published 2004)
